Test results from paper PMC7287031 (Pharmacology Research & Perspectives, 2020).

Key:
CYP1A2 = molecular target: T1, CYP1A2 (Homo sapiens, UniProt P05177); test: Enzyme kinetics with recombinant CYP1A2 and scaling to HLM; assay type: in vitro ADME
T1 construct: purchased BD Biosciences
T1 sequence (P05177 1-516): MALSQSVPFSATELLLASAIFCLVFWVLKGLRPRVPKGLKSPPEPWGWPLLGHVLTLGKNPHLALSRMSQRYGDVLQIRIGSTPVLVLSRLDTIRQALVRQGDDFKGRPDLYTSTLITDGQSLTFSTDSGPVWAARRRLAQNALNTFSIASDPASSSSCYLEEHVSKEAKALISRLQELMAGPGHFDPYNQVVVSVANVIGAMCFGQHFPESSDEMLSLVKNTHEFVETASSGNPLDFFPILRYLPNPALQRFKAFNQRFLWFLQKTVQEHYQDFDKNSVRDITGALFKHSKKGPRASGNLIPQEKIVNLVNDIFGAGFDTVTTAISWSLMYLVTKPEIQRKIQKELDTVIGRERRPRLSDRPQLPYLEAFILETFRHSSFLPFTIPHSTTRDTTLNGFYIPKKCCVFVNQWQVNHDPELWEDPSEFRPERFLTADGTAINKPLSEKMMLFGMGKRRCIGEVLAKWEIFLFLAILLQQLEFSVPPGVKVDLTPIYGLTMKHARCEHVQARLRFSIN
Description: In vitro incubations were carried out in 100‐mM potassium phosphate buffer (pH 7.4) and 5‐mM MgCl2 with a total volume of 200 µL. Substrate and either human liver microsomes (HLM, BD Biosciences, mixed gender pool of n = 50) or recombinant human enzymes (BD Biosciences) were added and pre‐incubated for 3 minutes at 37°C. The reaction was started by addition of a fresh solution of NADPH (1 mmol/L final concentration). The samples were incubated at 37°C with agitation of 500 rpm. For incubations with CYP2A6, CYP2C9, CYP2C18, and CYP4A11, the phosphate buffer was replaced by TRIS buffer (100 mmol/L, pH 7.4) and for flavin‐containing monooxygenases (FMOs), a glycine buffer (50 mM, pH 9.5) was used.
The enzymatic reaction was stopped and the protein was precipitated by addition of an equal volume of methanol. After 30 min at −80°C, the samples were centrifuged at 30'000 x g for 15 min. The supernatant was withdrawn. Aliquots were analyzed by LSC and the supernatant was diluted with water to obtain a final solution containing less than 20% of the organic solvent. For samples of low substrate concentration, supernatants were evaporated to dryness under nitrogen, then re‐suspended in water containing less than 20% of methanol. Samples were analyzed by HPLC combined with radiodetection. […]

[1] = Dog ADME study: excretion, mass balance, metabolite profiling with radiolabeled ribociclib; assay type: in vivo
Description: ADME studies (including QWBA in pigmented and non‐pigmented rats) using radiolabeled ribociclib were conducted in rat and dog. Relevant institutional and national guides for the care and use of laboratory animals were followed.
Metabolite profiling was conducted on plasma, urine, bile, and feces samples in the rat and dog ADME studies, and further metabolite profiling on plasma and milk was conducted in a dedicated rat milk excretion study.
Plasma samples obtained from these studies were extracted with equal volumes of acetonitrile. Additional extractions of the protein pellet with acetonitrile and/or acetone were conducted as needed to maximize radioactivity recovery. Feces samples were initially extracted with two to four volumes of acetonitrile. Additional extractions of the pellet following centrifugation and removal of supernatant were conducted with acetonitrile and/or acetone as needed to maximize radioactivity recovery. Urine and bile samples were analyzed directly following centrifugation. Radioactivity recoveries following the centrifugation step were measured by LSC. Milk samples were extracted with two volumes of acetonitrile, following centrifugation and removal of supernatant, the pellets were re‐suspended in 100 µL of water and re‐extracted with 200 µL acetonitrile.
Metabolite profiling in the ADME studies was conducted using liquid chromatography‐mass spectrometry. Radioactivity profiles were generated by diversion of the majority of the post‐column flow into 96‐well yttrium silicate scintillation‐coated plates (Deepwell Lumaplates; Perkin Elmer Life and Analytical Sciences Inc), by means of Gilson FC204 fraction collectors (Gilson). Metabolites were identified by mass spectrometry (Waters QTOF operating under MassLynx 4.1) and, where feasible, by comparison with authentic reference standards.

[2] = Human ADME study: safety assessments; assay type: in vivo; settings: single oral 600 mg
Description: Safety analysis included monitoring and recording of all adverse events, laboratory tests (ophthalmologic exam, hematology, blood chemistry, and urinalysis), vital signs, electrocardiogram, and physical examination.

[3] = Human ADME study: quantitative metabolite profiling in urine and feces; assay type: in vivo; settings: pooled excreta n=6, from metabolite patterns (radio profiling)
Description: Average pools across the six subjects were also created by combining equal percentages (of total urine and feces excreted over the time interval) of the individual subject pools. Urine pools were analyzed directly for metabolite profiling (column recovery of a representative sample was measured), whereas feces pools were subjected to extraction. Specifically, to each aliquot of feces homogenate, two volumes of acetonitrile were added. After centrifugation, the pellet was washed further with an additional two volumes of acetonitrile. […] All washes were combined, evaporated under nitrogen, and reconstituted with a solution of 15‐mM ammonium formate (pH 3.5). This feces extract reconstitute was analyzed for metabolite profiling. Combined extraction and reconstitution (overall recovery) and column recovery were measured. […] The HPLC column used was a Phenomenex Kinetex, C18, 250 × 4.6 mm, equipped with a pre‐column of the same type (2.1 × 4.6 mm), which was placed in a column oven at 40°C. […] The HPLC gradient was as follows: initial conditions were 5% mobile phase B for 1 minute, then increased to 20% at 10 minutes post injection where it was held (isocratic) up to 20 minutes. […] The post column flow was directed to the fraction collector operated in a time‐slice mode and containing 96‐well Lumaplates (Perkin Elmer). The plates were dried at room temperature and the radioactivity was measured using a microplate scintillation counter model TopCount NXT (Perkin Elmer) instrument (up to 3 × 100‐minute counting time). […] Metabolites were identified during the same injections using data generated by the high‐resolution mass spectrometer. The molecular ions and key fragments of each drug‐related component were determined. Key fragments for each metabolite were derived from their product ion mass spectra and were used to determine the metabolite structures. Where possible, structural assignments were supported by exact mass measurement, comparison with synthetic standards and/or Hydrogen/Deuterium (H/D) exchange LC‐MS(/MS).

[4] = oral dosing of radiolabeled ribociclib

In the case of `CN(C)C(=O)c1cc2cnc(Nc3ccc(N4CCNCC4)cn3)nc2n1C1CCCC1` [ribociclib, Ribociclib], the “fm,CYP” value (CYP1A2; CYP1A2, share of total CYP-mediated metabolism in HLM) is reported as 1.1%, the fumic (CYP1A2; CYP1A2 incubation) is reported as 0.86 and the “Recovery of radioactivity in mass balance study” value [1] is reported as “approximately 90%”. The “radioactivity found in feces” value [1, 4] was 68.8%, the “radioactivity found in urine” value [1, 4] was 18.5% and the ribociclib in feces ([1]; p.o.) was 10.7 % of the oral dose. For the same compound, the “unchanged ribociclib in urine” value ([1]; p.o.) was 13.4 % of the dose, the “abdominal discomfort, share of subjects” value ([2]; 2 subjects of six) was 33.3% and the “discontinuation due to an AE” value [2] was “no subjects discontinued”. For the same compound, the “serious adverse events (SAEs)” value [2] was “No serious adverse events”, the “severity of all AEs” value [2] was “grade 1” and the “subjects with an AE suspected to be related to the study drug (headache)” value [2] was “one subject”. The “subjects who experienced at least one adverse event (AE)” value ([2]; six healthy male subjects) was “Five” and the “Excretion (% of dose), Feces” value [3] was 17.3 % of dose.
